In patent US11147272B2, “Pyridone compounds and agricultural and horticultural fungicides comprising the same as active ingredients” (MITSUI CHEMICALS AGRO, INC., priority 2017, dated 2021):

Experiments:
[1] = system: Magnaporthe grisea; experiment: whole plant or invertebrate; format: in vivo; conditions: for Test A control value class: class of control value
[2] = system: Alternaia brassicicola; experiment: Test Example C: Alternaria sooty spot on cabbage; format: in vivo
Text: Seeds of a test plant (cabbage variety: Shikidori) were planted and cultivated until the cotyledons extended.
<Control Value> Control value=100{1−(n/3)}

[3] = system: Puccinia recondita; experiment: Test Example E: Brown rust on wheat; format: in vivo
[4] = system: Phytophthora infestans; experiment: whole plant or invertebrate; format: in vivo; conditions: for Test F control value class: class of control value
[5] = system: Botrytis cinerea; experiment: Test Example B: Gray mold on tomato; conditions: for Test B control value class: class of control value
[6] = system: Plasmopara viticola; experiment: Test Example G: Downy mildew on vine; conditions: for Test G control value: 7 to 10 days after inoculation; for Test G control value class: Downy mildew on vine (Neomuscat), 2.5 ml/pot, assessed 7 to 10 days after inoculation
[7] = system: Colletotrichum orbiculare; experiment: Test Example H: Anthracnose on cucumber; conditions: for Test H control value: 6 to 10 days after inoculation; for Test H control value class: Anthracnose on cucumber (Sagami Hanjiro), 2.5 ml/pot, assessed 6 to 10 days after inoculation
[8] = system: Blumeria graminis f. sp. hordei; experiment: Test Example D: Powdery mildew on barley; conditions: for Test D control value class: class of control value
[9] = 250 ppm drug solution sprayed on test plant
[10] = 250 ppm drug solution sprayed (2.5 ml/pot), grape Neomuscat
[11] = 250 ppm drug solution sprayed (2.5 ml/pot), cucumber Sagami Hanjiro
[12] = Blast on rice, control value class
[13] = Alternaria sooty spot on cabbage, control value class
[14] = Brown rust on wheat, control value class
[15] = Late blight on tomato, control value class
[16] = Gray mold on tomato, control value class
[17] = Downy mildew on vine, 250 ppm spray
[18] = Anthracnose on cucumber, 250 ppm spray
[19] = Powdery mildew on barley, control value class
[20] = Alternaria sooty spot on cabbage, class of control value
[21] = Brown rust on wheat, class of control value

CCC(C)(O)c1cc(Cl)c(=O)n(C)c1-c1c(F)cc(F)cc1F (centres unmarked) [compound 505]
H (more than 50% control value): Test A control value [1, 9] | Test C control value [2, 9] | Test E control value [3, 9] | Test B control value [5, 9] | Test G control value [6, 10] | Test H control value [7, 11] | Test D control value [8, 9]
L (50% or less control value): Test F control value [4, 9]

CCn1c(-c2c(F)cccc2F)c(C(C)(O)CC)cc(Cl)c1=O (centres unmarked) [Compound No. 27, 3-chloro-6-(2,6-difluorophenyl)-1-ethyl-5-(2-hydroxybutan-2-yl)pyridin-2(1H)-one]
< 50%: pest or weed control at 250 µg/mL ([4]; Phytophthora infestans, in Solanum lycopersicum, topical, read-out: Test F control value class)
> 50%: pest or weed control at 250 µg/mL ([1]; Pyricularia oryzae, in Oryza sativa, read-out: Test A control value class) | pest or weed control at 250 µg/mL ([2]; Brassica oleracea, topical, Alternaria sooty spot on cabbage, class of control value, read-out: Test C control value class) | pest or weed control at 250 µg/mL ([3]; Puccinia recondita, topical, Brown rust on wheat, class of control value, read-out: Test E control value class) | pest or weed control at 250 µg/mL ([5]; Botrytis cinerea, in Solanum lycopersicum, topical, read-out: Test B control value class) | pest or weed control at 250 ppm ([6]; Plasmopara viticola, topical, read-out: Test G control value class) | pest or weed control at 250 ppm ([7]; Colletotrichum orbiculare, in Cucumis sativus, topical, read-out: Test H control value class) | pest or weed control at 250 µg/mL ([8]; Blumeria graminis, in Hordeum vulgare, topical, read-out: Test D control value class)

CCCOC(C)(c1cc(Cl)c(=O)n(CC)c1-c1c(F)cc(F)cc1F)C1CCCC1 (centres unmarked) [compound 257]
H (more than 50% control value): Test C control value [2, 13] | Test H control value [7, 18]
L (50% or less control value): Test A control value [1, 12] | Test E control value [3, 14] | Test F control value [4, 15] | Test B control value [5, 16] | Test G control value [6, 17] | Test D control value [8, 19]

CCC(C)c1cc(Cl)c(=O)n(CC)c1-c1c(F)cc(F)cc1F (centres unmarked) [compound 33]
L (50% or less control value): Test F control value class ([4]; Late blight on tomato) | Test G control value class ([6]; 250 ppm spray)
H (more than 50% control value): Test A control value class ([1]; Blast on rice) | Test C control value class [2, 20] | Test E control value class [3, 21] | Test B control value class ([5]; Gray mold on tomato) | Test H control value class ([7]; 250 ppm spray) | Test D control value class ([8]; Powdery mildew on barley)

CCn1c(-c2ccc(O)cc2F)c(CC(C)C)cc(Cl)c1=O [compound 118]
H (more than 50% control value): Test C control value class [2, 20] | Test E control value class [3, 21] | Test B control value class ([5]; Gray mold on tomato)
L (50% or less control value): Test A control value class ([1]; Blast on rice) | Test F control value class ([4]; Late blight on tomato) | Test G control value class ([6]; 250 ppm spray) | Test H control value class ([7]; 250 ppm spray) | Test D control value class ([8]; Powdery mildew on barley)

CCn1c(-c2c(F)cc(OC)cc2F)c(C(C)(CC)OC)cc(Cl)c1=O (centres unmarked) [compound 55]
L (50% or less control value): Test F control value class ([4]; Late blight on tomato) | Test G control value class ([6]; 250 ppm spray)
H (more than 50% control value): Test A control value class ([1]; Blast on rice) | Test C control value class [2, 20] | Test E control value class [3, 21] | Test B control value class ([5]; Gray mold on tomato) | Test H control value class ([7]; 250 ppm spray) | Test D control value class ([8]; Powdery mildew on barley)

CCC(C)c1cc(Br)c(=O)n(CC)c1-c1c(F)cc(F)cc1F (centres unmarked) [compound 32]
L (50% or less control value): Test F control value class ([4]; Late blight on tomato) | Test G control value class ([6]; 250 ppm spray)
H (more than 50% control value): Test A control value class ([1]; Blast on rice) | Test C control value class [2, 20] | Test E control value class [3, 21] | Test B control value class ([5]; Gray mold on tomato) | Test H control value class ([7]; 250 ppm spray) | Test D control value class ([8]; Powdery mildew on barley)

CCCCCCCCCC1=C(c2ccc(F)cc2Cl)N(CC)C(=O)CC1 [compound 267]
H (more than 50% control value): Test H control value [7, 18] | Test D control value [8, 19]
L (50% or less control value): Test A control value [1, 12] | Test C control value [2, 13] | Test E control value [3, 14] | Test F control value [4, 15] | Test B control value [5, 16] | Test G control value [6, 17]

CCCc1cc(Br)c(=O)n(CCC)c1-c1c(F)cc(F)cc1F [compound 440]
L (50% or less control value): Test C control value [2, 9] | Test E control value [3, 9] | Test F control value [4, 9] | Test B control value [5, 9] | Test G control value [6, 10] | Test H control value [7, 11] | Test D control value [8, 9]
H (more than 50% control value): Test A control value [1, 9]

CCCCC(=O)c1cc(Cl)c(=O)n(CC)c1-c1c(F)cc(F)cc1F [compound 277]
L (50% or less control value): Test F control value [4, 15]
H (more than 50% control value): Test A control value [1, 12] | Test C control value [2, 13] | Test E control value [3, 14] | Test B control value [5, 16] | Test G control value [6, 17] | Test H control value [7, 18] | Test D control value [8, 19]

CCn1c(-c2c(F)cc(OC)cc2F)c(CN(C)C)cc(Cl)c1=O [compound 92]
H (more than 50% control value): Test A control value class ([1]; Blast on rice) | Test C control value class [2, 20] | Test E control value class [3, 21] | Test H control value class ([7]; 250 ppm spray)
L (50% or less control value): Test F control value class ([4]; Late blight on tomato) | Test B control value class ([5]; Gray mold on tomato) | Test G control value class ([6]; 250 ppm spray) | Test D control value class ([8]; Powdery mildew on barley)

CCn1c(-c2c(F)cc(F)cc2F)c(C(C)O)cc(Cl)c1=O (centres unmarked) [compound 514]
H (more than 50% control value): Test C control value [2, 9] | Test E control value [3, 9] | Test B control value [5, 9] | Test G control value [6, 10] | Test H control value [7, 11] | Test D control value [8, 9]
L (50% or less control value): Test A control value [1, 9] | Test F control value [4, 9]

CCn1c(-c2ccc(OC)cc2F)c(CC(C)C)cc(Cl)c1=O [compound 115]
H (more than 50% control value): Test A control value class ([1]; Blast on rice) | Test C control value class [2, 20] | Test E control value class [3, 21] | Test B control value class ([5]; Gray mold on tomato) | Test H control value class ([7]; 250 ppm spray) | Test D control value class ([8]; Powdery mildew on barley)
L (50% or less control value): Test F control value class ([4]; Late blight on tomato) | Test G control value class ([6]; 250 ppm spray)
